Measured values as given in patent publication US10865208B2, “ATG7 inhibitors and the uses thereof” (Millennium Pharmaceuticals, Inc., priority 2016, dated 2020).

Molecular target: recombinant human His-ATG7 enzyme (Homo sapiens (Human), UniProt O95352)
Experiment: ATG7 Enzyme Assay (HTRF/FRET, ATG3-GST and Flag-Gabarap)
Format: biochemical
Conditions: for inhibition at 0.123 µM: Concentration 0.123 μM; for inhibition at 0.111 µM: Concentration 0.111 μM
Method: Example 97: ATG7 Enzyme Assay
The total volume of the ATG7 enzymatic assay is 50 μL and contains 50 mM HEPES Hemisodium (pH 7.5), 0.05% BSA, 0.01% Tween-20, 25 mM NaCl, 5 mM MgCl2, 10 μM ATP, 250 μM GSH, 5 nM ATG3-GST, 5 nM Flag-Gabarap, 100 μM TCEP and 0.15 nM recombinant human His-ATG7 enzyme. The enzymatic reaction mixture, with and without inhibitor, was incubated at 24° C. for 105 min in a 384-well plate before termination with […] of Stop/Detection buffer (0.1M HEPES Hemisodium pH 7.5, 0.05% Tween20, 20 mM EDTA, 410 mM KF, 0.53 nM Europium-Cryptate labeled monoclonal anti-Flag M2 Antibody (CisBio International) and 8.125 μg/ml PHYCOLINK goat anti-GST allophycocyanin (XL-APC) antibody (Prozyme)). After incubation for 2 hours at 24° C., quantification of FRET is performed on the Pherostar™ (BMG Labtech). Percentage inhibition values at a single concentration or enzyme inhibition (IC50) values are determined from those curves. One skilled in the art will appreciate that the values generated either as percentage inhibition at a single concentration or IC50 values are subject to experimental variation.

Sequence of recombinant human His-ATG7 enzyme (O95352 whole entry): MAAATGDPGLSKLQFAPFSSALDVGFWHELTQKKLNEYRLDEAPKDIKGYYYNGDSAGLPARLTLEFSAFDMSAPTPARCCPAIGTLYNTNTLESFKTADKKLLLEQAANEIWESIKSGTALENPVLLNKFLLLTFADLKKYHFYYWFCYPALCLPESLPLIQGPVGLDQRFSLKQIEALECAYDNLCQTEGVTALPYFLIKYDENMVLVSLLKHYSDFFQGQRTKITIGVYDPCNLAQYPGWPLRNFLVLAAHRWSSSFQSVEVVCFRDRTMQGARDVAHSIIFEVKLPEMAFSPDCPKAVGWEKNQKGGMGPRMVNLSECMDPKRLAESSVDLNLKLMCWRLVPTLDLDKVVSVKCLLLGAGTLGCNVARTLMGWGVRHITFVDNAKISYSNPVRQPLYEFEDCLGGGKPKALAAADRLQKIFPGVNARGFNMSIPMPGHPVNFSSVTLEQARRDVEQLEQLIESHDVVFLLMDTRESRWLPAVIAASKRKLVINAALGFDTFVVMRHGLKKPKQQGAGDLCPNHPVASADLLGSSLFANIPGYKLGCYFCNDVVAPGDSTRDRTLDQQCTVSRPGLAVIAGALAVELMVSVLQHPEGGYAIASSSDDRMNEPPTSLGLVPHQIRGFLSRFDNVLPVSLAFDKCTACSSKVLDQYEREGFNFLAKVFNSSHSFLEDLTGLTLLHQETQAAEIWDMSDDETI

IC50 [nM]	inhibition at 0.123 µM (read-out: Percent Inhibition) [%]	inhibition at 0.111 µM (read-out: Percent Inhibition) [%]	inhibition at 0.069 µM (Concentration 0.069 μM, read-out: Percent Inhibition) [%]	SMILES
50 to 100	62	–	–	C=Cc1nn([C@@H]2O[C@H](COS(N)(=O)=O)[C@@H](O)[C@H]2O)c2ncnc(N)c12 [Compound I-18, [(2R,3S,4R,5R)-5-(4-amino-3-vinyl-1H-pyrazolo[3,4-d]pyrimidin-1-yl)-3,4-dihydroxytetrahydrofuran-2-yl]methyl Sulfamate]
100 to 500	32	–	–	COCc1nn([C@@H]2O[C@H](COS(N)(=O)=O)[C@@H](O)[C@H]2O)c2ncnc(N)c12 [Compound I-19, {(2R,3S,4R,5R)-5-[4-amino-3-(methoxymethyl)-1H-pyrazolo[3,4-d]pyrimidin-1-yl]-3,4-dihydroxytetrahydrofuran-2-yl}methyl Sulfamate]
100 to 500	22	–	–	CC(=O)c1nn([C@@H]2O[C@H](COS(N)(=O)=O)[C@@H](O)[C@H]2O)c2ncnc(N)c12 [Compound I-21, [(2R,3S,4R,5R)-5-(3-acetyl-4-amino-1H-pyrazolo[3,4-d]pyrimidin-1-yl)-3,4-dihydroxytetrahydrofuran-2-yl]methyl Sulfamate]
> 500	11	–	–	CC(C)(O)c1nn([C@@H]2O[C@H](COS(N)(=O)=O)[C@@H](O)[C@H]2O)c2ncnc(N)c12 [Compound I-24, {(2R,3S,4R,5R)-5-[4-amino-3-(2-hydroxypropan-2-yl)-1H-pyrazolo[3,4-d]pyrimidin-1-yl]-3,4-dihydroxytetrahydrofuran-2-yl}methyl Sulfamate]
50 to 100	64	–	–	Nc1ncnc2c1c(C(F)F)nn2[C@@H]1O[C@H](COS(N)(=O)=O)[C@@H](O)[C@H]1O [Compound I-25, {(2R,3S,4R,5R)-5-[4-amino-3-(difluoromethyl)-1H-pyrazolo[3,4-d]pyrimidin-1-yl]-3,4-dihydroxytetrahydrofuran-2-yl}methyl Sulfamate]
50 to 100	53	–	–	Nc1ncnc2c1c(C1CC1)nn2[C@@H]1O[C@H](COS(N)(=O)=O)[C@@H](O)[C@H]1O [Compound I-26, [(2R,3S,4R,5R)-5-(4-amino-3-cyclopropyl-1H-pyrazolo[3,4-d]pyrimidin-1-yl)-3,4-dihydroxytetrahydrofuran-2-yl]methyl Sulfamate]
20 to 50	78	–	–	Nc1ncnc2c1c(OC(F)F)nn2[C@@H]1O[C@H](COS(N)(=O)=O)[C@@H](O)[C@H]1O [Compound I-27, {(2R,3S,4R,5R)-5-[4-amino-3-(difluoromethoxy)-1H-pyrazolo[3,4-d]pyrimidin-1-yl]-3,4-dihydroxytetrahydrofuran-2-yl}methyl Sulfamate]
50 to 100	71	–	–	CC(C)(O)CSc1nn([C@@H]2O[C@H](COS(N)(=O)=O)[C@@H](O)[C@H]2O)c2ncnc(N)c12 [Compound I-28, [(2R,3S,4R,5R)-5-{4-amino-3-[(2-hydroxy-2-methylpropyl)sulfanyl]-1H-pyrazolo[3,4-d]pyrimidin-1-yl}-3,4-dihydroxytetrahydrofuran-2-yl]methyl sulfamate]
> 500	26	–	–	N#CCc1nn([C@@H]2O[C@H](COS(N)(=O)=O)[C@@H](O)[C@H]2O)c2ncnc(N)c12 [Compound I-29, {(2R,3S,4R,5R)-5-[4-amino-3-(cyanomethyl)-1H-pyrazolo[3,4-d]pyrimidin-1-yl]-3,4-dihydroxytetrahydrofuran-2-yl}methyl Sulfamate]
> 500	15	–	–	Nc1ncnc2c1c(-c1nccs1)nn2[C@@H]1O[C@H](COS(N)(=O)=O)[C@@H](O)[C@H]1O [Compound I-30, {(2R,3S,4R,5R)-5-[4-amino-3-(1,3-thiazol-2-yl)-1H-pyrazolo[3,4-d]pyrimidin-1-yl]-3,4-dihydroxytetrahydrofuran-2-yl}methyl sulfamate]
20 to 50	85	–	–	Cc1cccc(CSc2nn([C@@H]3O[C@H](COS(N)(=O)=O)[C@@H](O)[C@H]3O)c3ncnc(N)c23)c1 [Compound I-31, [(2R,3S,4R,5R)-5-{4-amino-3-[(3-methylbenzyl)sulfanyl]-1H-pyrazolo[3,4-d]pyrimidin-1-yl}-3,4-dihydroxytetrahydrofuran-2-yl]methyl sulfamate]
20 to 50	73	–	–	Nc1ncnc2c1c(SCc1ccc(OC(F)(F)F)cc1)nn2[C@@H]1O[C@H](COS(N)(=O)=O)[C@@H](O)[C@H]1O [Compound I-32, [(2R,3S,4R,5R)-5-(4-amino-3-{[4-(trifluoromethoxy)benzyl]sulfanyl}-1H-pyrazolo[3,4-d]pyrimidin-1-yl)-3,4-dihydroxytetrahydrofuran-2-yl]methyl sulfamate]
20 to 50	82	–	–	Nc1ncnc2c1c(SCc1ccc(C(F)(F)F)cc1)nn2[C@@H]1O[C@H](COS(N)(=O)=O)[C@@H](O)[C@H]1O [Compound I-33, [(2R,3S,4R,5R)-5-(4-amino-3-{[4-(trifluoromethyl)benzyl]sulfanyl}-1H-pyrazolo[3,4-d]pyrimidin-1-yl)-3,4-dihydroxytetrahydrofuran-2-yl]methyl sulfamate]
50 to 100	70	–	–	Nc1ncnc2c1c(Sc1ccc(Cl)cc1Cl)nn2[C@@H]1O[C@H](COS(N)(=O)=O)[C@@H](O)[C@H]1O [Compound I-34, [(2R,3S,4R,5R)-5-{4-amino-3-[(2,4-dichlorophenyl)sulfanyl]-1H-pyrazolo[3,4-d]pyrimidin-1-yl}-3,4-dihydroxytetrahydrofuran-2-yl]methyl sulfamate]
20 to 50	72	–	–	COCCSc1nn([C@@H]2O[C@H](COS(N)(=O)=O)[C@@H](O)[C@H]2O)c2ncnc(N)c12 [Compound I-35, [(2R,3S,4R,5R)-5-{4-amino-3-[(2-methoxyethyl)sulfanyl]-1H-pyrazolo[3,4-d]pyrimidin-1-yl}-3,4-dihydroxytetrahydrofuran-2-yl]methyl sulfamate]
< 20	–	88	–	Nc1ncnc2c1c(Sc1cn[nH]c1)nn2[C@@H]1O[C@H](COS(N)(=O)=O)[C@@H](O)[C@H]1O [Compound I-36, {(2R,3S,4R,5R)-5-[4-amino-3-(1H-pyrazol-4-ylsulfanyl)-1H-pyrazolo[3,4-d]pyrimidin-1-yl]-3,4-dihydroxytetrahydrofuran-2-yl}methyl sulfamate]
> 500	–	–	7	Nc1ncnc2c1c(Oc1ccccc1)nn2[C@@H]1O[C@H](COS(N)(=O)=O)[C@@H](O)[C@H]1O [Compound I-37, [(2R,3S,4R,5R)-5-(4-amino-3-phenoxy-1H-pyrazolo[3,4-d]pyrimidin-1-yl)-3,4-dihydroxytetrahydrofuran-2-yl]methyl sulfamate]
20 to 50	84	–	–	COc1ccc(CSc2nn([C@@H]3O[C@H](COS(N)(=O)=O)[C@@H](O)[C@H]3O)c3ncnc(N)c23)cc1 [Compound I-38, [(2R,3S,4R,5R)-5-{4-amino-3-[(4-methoxybenzyl)sulfanyl]-1H-pyrazolo[3,4-d]pyrimidin-1-yl}-3,4-dihydroxytetrahydrofuran-2-yl]methyl sulfamate]
20 to 50	75	–	–	Cc1ccccc1CSc1nn([C@@H]2O[C@H](COS(N)(=O)=O)[C@@H](O)[C@H]2O)c2ncnc(N)c12 [Compound I-39, [(2R,3S,4R,5R)-5-{4-amino-3-[(2-methylbenzyl)sulfanyl]-1H-pyrazolo[3,4-d]pyrimidin-1-yl}-3,4-dihydroxytetrahydrofuran-2-yl]methyl sulfamate]
< 20	85	–	–	Nc1ncnc2c1c(Sc1cccc(Cl)c1)nn2[C@@H]1O[C@H](COS(N)(=O)=O)[C@@H](O)[C@H]1O [Compound I-40, [(2R,3S,4R,5R)-5-{4-amino-3-[(3-chlorophenyl)sulfanyl]-1H-pyrazolo[3,4-d]pyrimidin-1-yl}-3,4-dihydroxytetrahydrofuran-2-yl]methyl sulfamate]
20 to 50	–	85	–	Cc1ccc(CSc2nn([C@@H]3O[C@H](COS(N)(=O)=O)[C@@H](O)[C@H]3O)c3ncnc(N)c23)cc1 [Compound I-41, [(2R,3S,4R,5R)-5-{4-amino-3-[(4-methylbenzyl)sulfanyl]-1H-pyrazolo[3,4-d]pyrimidin-1-yl}-3,4-dihydroxytetrahydrofuran-2-yl]methyl sulfamate]
< 20	–	79	–	CSc1nn([C@@H]2O[C@H](COS(N)(=O)=O)[C@@H](O)[C@H]2O)c2ncnc(N)c12 [Compound I-42, {(2R,3S,4R,5R)-5-[4-amino-3-(methylsulfanyl)-1H-pyrazolo[3,4-d]pyrimidin-1-yl]-3,4-dihydroxytetrahydrofuran-2-yl}methyl Sulfamate]
20 to 50	75	–	–	C#CCSc1nn([C@@H]2O[C@H](COS(N)(=O)=O)[C@@H](O)[C@H]2O)c2ncnc(N)c12 [Compound I-43, {(2R,3S,4R,5R)-5-[4-amino-3-(prop-2-yn-1-ylsulfanyl)-1H-pyrazolo[3,4-d]pyrimidin-1-yl]-3,4-dihydroxytetrahydrofuran-2-yl}methyl sulfamate]
